In paper PMC4923153, “Protection of Primary Dopaminergic Midbrain Neurons by GPR139 Agonists Supports Different Mechanisms of MPP^+ and Rotenone Toxicity” (Frontiers in Cellular Neuroscience, 2016):

How the values were obtained:
[1] = target: norepinephrine transporter (Homo sapiens, UniProt P23975); test: Inhibition of binding to the norepinephrine transporter (cross reactivity); details: concentration not given
Protocol: (§1) None of the compounds were useful in vivo tools due to their unfavorable ADME properties including low whole brain exposure and brain/plasma ratio (Shi et al., [2011]). Cross reactivity with the DAT or the norepinephrine transporter was determined as described (Shi et al., [2011]).
(§2) As both 6-OHDA and MPP^+ are taken up via the DAT, it was not likely that the agonists mediated their protection against MPP^+ by merely blocking the DAT. However, to further exclude the possibility that the protection against MPP^+ by the agonist compound 3 is mediated by blocking MPP^+ uptake, rather than signaling through GPR139, DA and noradrenaline uptake in the presence of the agonist was tested. […] Ten micrometres (10 μM) compound 1 inhibited binding to the DAT or the norepinephrine transporter by 4% or −8%, respectively (Shi et al., [2011]) compound 2 inhibited binding to the DAT or the norepinephrine transporter 2% or −4%, respectively.

[2] = target: DAT (Homo sapiens, UniProt Q01959); test: Inhibition of binding to the DAT (cross reactivity); details: concentration not given
Protocol: as §1, §2

[3] = system: primary DA midbrain neurons; test: Protection of primary DA midbrain neurons against rotenone toxicity (TH-positive neuron count); type: cell-based, mice; details: 1 μM agonist 1 h, 0-100 nM rotenone 24 h, n = 4
Protocol: Experiments were conducted in accordance with the ethical guidelines of H. Lundbeck A/S and the Danish legislation of animal use for scientific procedures. Cell culture was basically performed as described (Nagel et al., [2008]), with few modifications. […] Plates were stored at 4°C until tyrosine-hydroxylase-positive (TH-positive) neurons were counted using a Thermo Scientific Cellomics® ArrayScan® VTI HCS Reader. […] To ensure that only healthy primary cultures were assessed, we furthermore excluded experiments with total cell counts below Mean minus standard deviation (SD) of the summarized experiments. […]
Mesencephalic cultures were treated with 1 μM of either one of the GPR139 agonists compound 1 ( [drawing 13] ), compound 2 ( [drawing 14] ), or compound 3 ( [drawing 15] ), or vehicle ( [drawing 16] ) for 1 h before exposing them to 0–100 nM of rotenone. […] TH-positive neurons were counted and normalized to control numbers (100%).

Chain of norepinephrine transporter (P23975 whole entry, species assumed): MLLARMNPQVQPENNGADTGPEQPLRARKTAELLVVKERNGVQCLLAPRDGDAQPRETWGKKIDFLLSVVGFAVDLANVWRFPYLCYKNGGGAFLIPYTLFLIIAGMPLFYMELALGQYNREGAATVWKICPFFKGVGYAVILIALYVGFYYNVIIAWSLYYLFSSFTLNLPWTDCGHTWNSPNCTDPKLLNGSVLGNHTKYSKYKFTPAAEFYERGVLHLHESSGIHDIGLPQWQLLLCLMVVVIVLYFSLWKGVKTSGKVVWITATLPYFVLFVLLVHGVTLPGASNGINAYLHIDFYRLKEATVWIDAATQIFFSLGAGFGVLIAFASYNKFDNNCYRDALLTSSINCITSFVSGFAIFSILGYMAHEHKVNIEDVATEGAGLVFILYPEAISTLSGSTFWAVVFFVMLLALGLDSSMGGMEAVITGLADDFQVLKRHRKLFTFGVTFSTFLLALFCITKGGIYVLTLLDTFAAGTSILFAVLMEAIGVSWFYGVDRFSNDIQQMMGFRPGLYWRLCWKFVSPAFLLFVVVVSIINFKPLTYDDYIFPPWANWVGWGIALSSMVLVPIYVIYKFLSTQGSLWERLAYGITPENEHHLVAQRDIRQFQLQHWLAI
Chain of DAT (Q01959 whole entry, species assumed): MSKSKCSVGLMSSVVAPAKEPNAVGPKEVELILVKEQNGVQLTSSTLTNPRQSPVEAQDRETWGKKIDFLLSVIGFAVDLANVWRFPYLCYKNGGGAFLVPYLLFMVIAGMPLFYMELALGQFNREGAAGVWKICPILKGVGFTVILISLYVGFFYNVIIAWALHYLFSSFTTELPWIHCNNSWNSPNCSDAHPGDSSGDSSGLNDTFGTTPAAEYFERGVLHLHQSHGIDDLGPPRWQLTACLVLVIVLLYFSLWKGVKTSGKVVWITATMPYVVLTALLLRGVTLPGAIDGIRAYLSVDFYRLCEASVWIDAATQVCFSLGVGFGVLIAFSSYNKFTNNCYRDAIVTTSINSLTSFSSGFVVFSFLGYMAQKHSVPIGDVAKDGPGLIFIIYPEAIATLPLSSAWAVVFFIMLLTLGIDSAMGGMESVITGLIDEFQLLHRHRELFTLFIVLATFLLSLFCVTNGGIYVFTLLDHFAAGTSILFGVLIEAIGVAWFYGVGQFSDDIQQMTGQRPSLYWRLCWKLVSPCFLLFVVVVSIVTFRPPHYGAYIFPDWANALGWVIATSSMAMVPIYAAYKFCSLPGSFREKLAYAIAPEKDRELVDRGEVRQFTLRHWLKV

CN(C)C1CCN(C(=O)CNC(=O)Cc2cccc3ccccc23)C1 (stereo not drawn) [compound 2, N-[2-(3-Dimethylamino-pyrrolidin-1-yl)-2-oxo-ethyl]-2-Naphthalen-1-yl-acetamide]
inhibition of binding to the norepinephrine transporter [1]: −4%
inhibition of binding to the DAT [2]: 2%
protection against rotenone toxicity [3]: do not protect
